Experimental data from PMC7115508 (European Journal of Medicinal Chemistry, 2011).

system: HCV RNA replication in HCV replicon cell (Huh-7 carrying the subgenomic HCV genotype 1 replicon); settings: read-out: Antiviral Activity HCV (EC50); cited from earlier work

| SMILES | EC50 [µM] |
| --- | --- |
| O=c1c(OCc2cccc([N+](=O)[O-])c2)c(-c2ccccc2)oc2cc(O)cc(O)c12 [compound 3, reference compound] | 5 |
| N#Cc1cccc(COc2cc(O)c3c(=O)c(O)c(-c4ccccc4)oc3c2)c1 [compound 4, reference compound] | 3 |

system: normal human fibroblast cell HS27; settings: not given

| SMILES | Cytotoxicity: concentration required to reduce proliferation of normal human fibroblast cell HS27 by 50% [µM] |
| --- | --- |
| O=c1cc(OCc2ccccc2)oc2ccc(OCc3cccc(Cl)c3)c(O)c12 [5a, 2-benzyloxy-6-(3-chloro-benzyloxy)-5-hydroxy-chromen-4-one] | >50 |
| O=c1cc(OCc2cccc(Cl)c2)oc2ccc(OCc3cccc(Cl)c3)c(O)c12 [5b, 2,6-bis-(3-chloro-benzyloxy)-5-hydroxy-chromen-4-one] | >50 |
| O=c1cc(OCc2ccc(Cl)cc2)oc2ccc(OCc3cccc(Cl)c3)c(O)c12 [5c, 6-(3-chloro-benzyloxy)-2-(4-chloro-benzyloxy)-5-hydroxy-chromen-4-one] | >50 |
| O=c1cc(OCc2cc(Cl)cc(Cl)c2)oc2ccc(OCc3cccc(Cl)c3)c(O)c12 [5d, 6-(3-chloro-benzyloxy)-2-(3,5-dichloro-benzyloxy)-5-hydroxy-chromen-4-one] | >50 |
| O=c1cc(OCc2cccc(I)c2)oc2ccc(OCc3cccc(Cl)c3)c(O)c12 [5e, 6-(3-chloro-benzyloxy)-5-hydroxy-2-(3-iodo-benzyloxy)-chromen-4-one] | >50 |
| O=c1cc(OCc2ccc(I)cc2)oc2ccc(OCc3cccc(Cl)c3)c(O)c12 [5f, 6-(3-chloro-benzyloxy)-5-hydroxy-2-(4-iodo-benzyloxy)-chromen-4-one] | >50 |
| N#Cc1cccc(COc2cc(=O)c3c(O)c(OCc4cccc(Cl)c4)ccc3o2)c1 [5g, 3-[6-(3-chloro-benzyloxy)-5-hydroxy-4-oxo-4H-chromen-2-yloxymethyl]-benzonitrile] | >50 |
| O=C(O)/C(O)=C/C(=O)c1cccc(NCc2ccc(Cl)cc2)c1 [compound 1, reference compound] | >50 |
| O=c1c(OCc2cccc([N+](=O)[O-])c2)c(-c2ccccc2)oc2cc(O)cc(O)c12 [compound 3, reference compound] | >50 |
| N#Cc1cccc(COc2cc(O)c3c(=O)c(O)c(-c4ccccc4)oc3c2)c1 [compound 4, reference compound] | >50 |
